Laboratory results: PMC9735621, “Synthesis, Biological Evaluation and Computational Studies of New Hydrazide Derivatives Containing 1,3,4-Oxadiazole as Antitubercular Agents” (International Journal of Molecular Sciences, 2022)
“And” between values parts separate entries of the source, which are not always exact repeats. Equal entries are not always repeated. Where two headings read alike, the source gives them in different places.

What was measured:
M. tuberculosis H37Rv = test: microbe, parasite or virus in culture; assay type: cell-based; conditions: Mycobacterium tuberculosis
M. tuberculosis H37Ra = test: microbe, parasite or virus in culture; assay type: cell-based, Mycobacterium tuberculosis
SH-SY5Y cells = test: Cytotoxicity, resazurin cell viability assay; assay type: cell-based, human; conditions: for Cytotoxicity (in words): SH-SY5Y cells, tested concentrations up to 100 μM; for Viability (%) vs DMSO: SH-SY5Y, 48 h, average ± SEM
Protocol: (§1) Cell viability was assayed by using Resazurin (SERVA Electrophoresis GmbH, Heidelberg, Germany). This cell-permeable dye is reduced by aerobic respiration of metabolically active cells to resorufin, whose fluorescence is proportional to the number of live cells. The stock solution of resazurin sodium salt (440 μM, 10×) was resuspended in Phosphate Buffered Saline (PBS) and stored at −20 °C. Working solution (44 μM) was prepared on the same day of each assay by diluting resazurin stock solution in a standard culture medium. The human neuroblastoma cell line SH-SY5Y was used to test the cytotoxicity of five selected compounds (1h, and 1k–n). The cells were maintained in Dulbecco’s modified Eagle’s medium (DMEM; Gibco, Life Technologies Inc., Frederick, MD, USA) supplemented with 10% (v/v) fetal bovine serum (FBS) and Antibiotic Antimycotic Solution (100 U penicillin, 100 μg/mL streptomycin and 0.25 μg/mL amphotericin B; Sigma-Aldrich, St. Louis, MO, USA) at 37 °C in a humidified incubator with a 5% CO2/95% air atmosphere.
(§2) In the cytotoxicity tests, SH-SY5Y cells were seeded at a density of 5 × 10^3 cells/well in a 96-well plate and grown for another 24 h. Cells were then treated in triplicate with serial dilutions (100 μM, 50 μM, 25 μM, 12.5 μM, 6.25 μM, 3.125 μM) of selected compounds. After 48 h, the culture medium in each well was replaced with 100 μL of Resazurin working solution (44 μM). The fluorescent signal of the resorufin was monitored with Excitation λ = 530 nm and Emission λ = 590 nm by using an Envision 2104 Multi-label Microplate Reader (Perkin Elmer, Boston, MA, USA). Measurements were performed at time 0 and after 1 h of incubation. The percentage of viability was calculated after subtraction of the background (obtained by killing the cells), on the basis of the ratio between the fluorescence values of the cells incubated with a compound and the fluorescence values of cells incubated with the solvent (1% DMSO). The viability of cells incubated with 1% DMSO was considered to be equivalent to 100%. The statistical analysis was carried out with GraphPad Prism 6 (GraphPad Software, Inc., La Jolla, CA, USA) software using an unpaired t-test, and a p-value < 0.05 was considered statistically significant. Cytotoxicity (CC50) was determined from dose-response curves analyzed by using GraphPad Prism software.

[1] = Cytotoxicity, resazurin cell viability assay; assay type: cell-based, human; conditions: human, SH-SY5Y neuroblastoma cells; SH-SY5Y cells, 48 h; mean ± SEM
Protocol: as §1, §2

[2] = Mycobacterium tuberculosis, H37RA

SMILES | MIC (M. tuberculosis H37Rv) [µg/mL] | MIC (M. tuberculosis H37Ra; [2]) | MIC (M. tuberculosis H37Rv; […], value in brackets) [µM] | melting point [°C] | Cytotoxicity (in words) (SH-SY5Y cells) | Viability (%) vs DMSO (SH-SY5Y cells; 3.125 µM) [%] | Viability (%) vs DMSO (SH-SY5Y cells; 6.25 µM) [%] | Viability (%) vs DMSO (SH-SY5Y cells; 12.5 µM) [%] | Viability (%) vs DMSO (SH-SY5Y cells; 25 µM) [%] | Viability (%) vs DMSO (SH-SY5Y cells; 50 µM) [%] | Viability (%) vs DMSO (SH-SY5Y cells; 100 µM) [%] | CC50 at 48 h [1] [µM] | MIC (M. tuberculosis H37Ra)
O=C(N/N=C\c1ccc[nH]1)c1nnc(-c2ccncc2)o1 [1d, (Z)-N’-((1H-pyrrol-2-yl)methylen)-5-(pyridin-4-yl)-1,3,4-oxadiazol-2-carbohydrazide] | > 64 | 64 µg/mL and 226 µM |  |  |  |  |  |  |  |  |  |  | 
O=C(N/N=C\c1ccco1)c1nnc(-c2ccccc2)o1 [1n, (Z)-N’-(furan-2-ylmethylen)-5-phenyl-1,3,4-oxadiazol-2-carbohydrazide] | 16 | 8 µg/mL and 28.3 µM | 56.6 | 221 to 223 | no cytotoxicity at tested concentrations | 100 ± 11 | 100 ± 11 | 99 ± 15 | 100 ± 12 | 100 ± 13 | 97 ± 11 | > 100 | 
O=C(N/N=C\c1ccc(Cl)cc1)c1nnc(-c2ccncc2)o1 [1b, (Z)-N’-(4-chlorobenzyliden)-5-(pyridin-4-yl)-1,3,4-oxadiazol-2-carbohydrazide] | > 64 | > 64 µg/mL |  |  |  |  |  |  |  |  |  |  | >64 (-) μg/mL
O=C(N/N=C\c1ccncc1)c1nnc(-c2ccccc2)o1 [1m, (Z)-5-phenyl-N’-(pyridin-4-ylmethylen)-1,3,4-oxadiazol-2-carbohydrazide] | > 64 | 8 µg/mL and 27.4 µM |  | 243 to 245 |  | 100 ± 14 | 100 ± 14 | 98 ± 16 | 96 ± 14 | 87 ± 11 | 61 ± 9 | 128 ± 16 | 
O=C(N/N=C\c1ccncc1)c1nnc(-c2ccncc2)o1 [1f, (Z)-5-(pyridin-4-yl)-N’-(pyridin-4-ylmethylen)-1,3,4-oxadiazol-2-carbohydrazide] | > 64 | 64 µg/mL and 217 µM |  |  |  |  |  |  |  |  |  |  | 
O=C(N/N=C\c1ccccn1)c1nnc(-c2ccncc2)o1 [1e, (Z)-N’-(pyridin-2-ylmethylen)-5-(pyridin-4-yl)-1,3,4-oxadiazol-2-carbohydrazide] | 16 | 32 µg/mL and 108 µM | 54 | 255 to 259 |  |  |  |  |  |  |  |  | 
Cc1ccc(C=NNC(=O)c2nnc(-c3ccccc3)o2)cc1 (mixture of isomers) [1j, (E/Z)-N’-(4-methylbenzyliden)-5-phenyl-1,3,4-oxadiazol-2-carbohydrazide] | > 64 | 16 µg/mL and 52.2 µM |  | 200 to 202 |  |  |  |  |  |  |  |  | 
O=C(N/N=C\c1ccccc1)c1nnc(-c2ccccc2)o1 [1h, (Z)-N’-benzyliden-5-phenyl-1,3,4-oxadiazol-2-carbohydrazide] | > 64 | 8 µg/mL and 27.4 µM |  | 194 to 196 | no cytotoxicity at tested concentrations | 100 ± 13 | 99 ± 13 | 99 ± 11 | 99 ± 15 | 100 ± 14 | 97 ± 12 | > 100 | 
Cc1ccc(/C=N\NC(=O)c2nnc(-c3ccncc3)o2)cc1 [1c, (Z)-N’-(4-methylbenzyliden)-5-(pyridin-4-yl)-1,3,4-oxadiazol-2-carbohydrazide] | > 64 | 64 µg/mL and 195 µM |  |  |  |  |  |  |  |  |  |  | 
O=C(N/N=C\c1ccc(Cl)cc1)c1nnc(-c2ccccc2)o1 [1i, (Z)-N’-(4-chlorobenzyliden)-5-phenyl-1,3,4-oxadiazol-2-carbohydrazide] | > 64 | 16 µg/mL and 48.9 µM |  | 243 to 245 |  |  |  |  |  |  |  |  | 
O=C(N/N=C\c1ccc[nH]1)c1nnc(-c2ccccc2)o1 [1k, (Z)-N’-((1H-pyrrol-2-yl)methylen)-5-phenyl-1,3,4-oxadiazol-2-carbohydrazide] | 8 | 8 µg/mL and 28.3 µM | 28.3 | 185 to 187 |  | 100 ± 13 | 100 ± 13 | 101 ± 14 | 81 ± 12 | 49 ± 7 | 37 ± 6 | 50 ± 6 | 
CO[C@H]1/C=C/O[C@@]2(C)Oc3c(C)c(O)c4c(O)c(c(/C=N/N5CCN(C)CC5)c(O)c4c3C2=O)NC(=O)/C(C)=C\C=C\[C@H](C)[C@H](O)[C@@H](C)[C@@H](O)[C@@H](C)[C@H](OC(C)=O)[C@@H]1C [RIF, reference compound] | 0.5 |  | 0.6 |  |  |  |  |  |  |  |  |  | 
O=C(N/N=C\c1ccccn1)c1nnc(-c2ccccc2)o1 [1l, (Z)-5-phenyl-N’-(pyridin-2-ylmethylen)-1,3,4-oxadiazol-2-carbohydrazide] | 8 | 8 µg/mL and 27.4 µM | 27.1 | 242 to 243 |  | 100 ± 12 | 100 ± 12 | 98 ± 13 | 93 ± 13 | 70 ± 10 | 49 ± 7 | 100 ± 12 | 
NNC(=O)c1ccncc1 [INH, Isoniazid, reference compound] | 0.25 | 0.25 µg/mL and 1.8 µM | 1.8 |  |  |  |  |  |  |  |  |  | 
O=C(N/N=C\c1ccccc1)c1nnc(-c2ccncc2)o1 [1a, (Z)-N’-benzyliden-5-(pyridin-4-yl)-1,3,4-oxadiazol-2-carbohydrazide] | > 64 | 64 µg/mL and 218 µM |  | 207 to 209 |  |  |  |  |  |  |  |  | 
O=C(N/N=C\c1ccco1)c1nnc(-c2ccncc2)o1 [1g, (Z)-N’-(furan-2-ylmethylen)-5-(pyridin-4-yl)-1,3,4-oxadiazol-2-carbohydrazide] | > 64 | 64 µg/mL and 226 µM |  | 236 to 242 |  |  |  |  |  |  |  |  | 
